Test results from patent USRE47689E1, “Compounds for treating spinal muscular atrophy” (PTC Therapeutics, Inc., priority 2011, dated 2019).
Read-outs that look alike come from different tables or passages of the source.

What was measured:
[1] = tested on: SMN2 minigene (full length SMN2 minigene mRNA containing SMN2 exon 7); assay: SMN2 minigene mRNA splicing RT-qPCR assay in cultured cells; type: cell-based, human; conditions: Homo sapiens, HEK293-H, read-out: EC1.5x for production of full length SMN2 mRNA
How it was run: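 HEK293H cells stably carrying the SMN2-A minigene treated 24 h at 37° C with compound (DMSO, 200× stock), then lysed. Multiplex RT-qPCR (SMN primers 0.4 μM final; 40 cycles) measures full-length exon 7-containing minigene mRNA, normalized to GAPDH and to vehicle; EC1.5x derived and binned by stars.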

[2] = tested on: Smn protein; assay: Smn protein assay in cultured cells (SMN HTRF); type: cell-based, human; conditions: 48 hours; for maximum fold (Fold) increase of Smn protein: SMA patient fibroblast cells, 7-point concentration data, fold increase relative to vehicle control (SMN HTRF); for EC1.5x (concentration giving 1.5-fold Smn protein increase): SMA Type 1 patient fibroblast cells (GM03813), 7-point concentration curve, SMN HTRF, concentration producing 1.5 times Smn protein vs DMSO vehicle control, read-out: EC1.5x for Smn protein expression
How it was run: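 Lysates in RIPA with protease inhibitors are incubated overnight at room temperature with HTRF anti-SMN antibodies. EC1.5x is derived from fold increase in ΔF over vehicle.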

[3] = HEK293H cells stably transfected with SMN2-A minigene, 24 hours, 7-point concentration curve, 1.5-fold relative to vehicle-treated cells

| SMILES | EC (1.5-fold) [1, 3] [µM] | maximum fold (Fold) increase of Smn protein [2] | melting point | EC1.5x (concentration giving 1.5-fold Smn protein increase) [2] [nM] | EC (1.5-fold) ([1]; 24 h) [µM] |
| --- | --- | --- | --- | --- | --- |
| CCCN1CCN(c2ccc3cc(-c4cn5cccc(Cl)c5n4)c(=O)oc3c2)CC1 [Compound 119, 3-(8-chloroimidazo[1,2-a]pyridin-2-yl)-7-(4-propylpiperazin-1-yl)-2H-chromen-2-one] | 0.3 to 1 | ** (fold increase between >1.2 and ≤1.35) | 245 to 247 °C | – | – |
| C[C@@H]1CN(c2ccc3cc(-c4cn5cccc(Cl)c5n4)c(=O)oc3c2)C[C@H](C)N1 [Compound 120, 3-(8-chloroimidazo[1,2-a]pyridin-2-yl)-7-[(3R,5S)-3,5-dimethylpiperazin-1-yl]-2H-chromen-2-one] | < 0.1 | **** (fold increase between >1.5 and ≤1.65) | 286 °C (dec.) | < 300 | – |
| O=c1oc2cc(N3CCN(CCO)CC3)ccc2cc1-c1cn2cccc(Cl)c2n1 [Compound 121, 3-(8-chloroimidazo[1,2-a]pyridin-2-yl)-7-[4-(2-hydroxyethyl)piperazin-1-yl]-2H-chromen-2-one] | 0.3 to 1 | *** (fold increase between >1.35 and ≤1.5) | 247 to 250 °C | – | – |
| CN(C)[C@H]1CCN(c2ccc3cc(-c4cn5cccc(Cl)c5n4)c(=O)oc3c2)C1 [Compound 122, 3-(8-chloroimidazo[1,2-a]pyridin-2-yl)-7-[(3S)-3-(dimethylamino)pyrrolidin-1-yl]-2H-chromen-2-one] | 1 to 3 | * (maximum fold increase of ≤1.2) | 238 to 241 °C | – | – |
| C[C@@H]1CN(c2ccc3cc(-c4cn5ccc(Cl)cc5n4)c(=O)oc3c2)C[C@H](C)N1 [Compound 123, 3-(7-chloroimidazo[1,2-a]pyridin-2-yl)-7-[(3R,5S)-3,5-dimethylpiperazin-1-yl]-2H-chromen-2-one] | 1 to 3 | *** (fold increase between >1.35 and ≤1.5) | 223 to 231 °C | 300 to 1000 | – |
| CN1CCN(c2ccc3cc(-c4cccnc4C(F)(F)F)c(=O)oc3c2)CC1 [Compound 125, 7-(4-methylpiperazin-1-yl)-3-[2-(trifluoromethyl)pyridin-3-yl]-2H-chromen-2-one] | 1 to 3 | * (maximum fold increase of ≤1.2) | 180 to 182 °C | – | – |
| O=c1oc2cc(N3CCNCC3)ccc2cc1-c1ccncc1F [Compound 126, 3-(3-fluoropyridin-4-yl)-7-(piperazin-1-yl)-2H-chromen-2-one] | – | * (maximum fold increase of ≤1.2) | 202 to 204 °C | – | 3 to 30 |
| CN(C)CCN(C)c1ccc2cc(-c3cn4cccnc4n3)c(=O)oc2c1 [Compound 130, 7-{[2-(dimethylamino)ethyl](methyl)amino}-3-(imidazo[1,2-a]pyrimidin-2-yl)-2H-chromen-2-one] | 1 to 3 | * (maximum fold increase of ≤1.2) | 175 to 180 °C | – | – |
| Cc1ccn2cc(-c3cc4ccc(N5CCNCC5)cc4oc3=O)nc2c1 [Compound 131, 3-(7-methylimidazo[1,2-a]pyridin-2-yl)-7-(piperazin-1-yl)-2H-chromen-2-one] | 0.3 to 1 | *** (fold increase between >1.35 and ≤1.5) | 260 to 270 °C | – | – |
| Cc1cccc2nc(-c3cc4ccc(N5CCNCC5)cc4oc3=O)cn12 [Compound 132, 3-(5-methylimidazo[1,2-a]pyridin-2-yl)-7-(piperazin-1-yl)-2H-chromen-2-one] | 1 to 3 | * (maximum fold increase of ≤1.2) | 239 to 249 °C | – | – |
| Cc1ccn2cc(-c3cc4ccc(N5C[C@@H](C)N[C@@H](C)C5)cc4oc3=O)nc2c1 [Compound 133, 7-[(3R,5S)-3,5-dimethylpiperazin-1-yl]-3-(7-methylimidazo[1,2-a]pyridin-2-yl)-2H-chromen-2-one] | 0.1 to 0.3 | *** (fold increase between >1.35 and ≤1.5) | 210 to 217 °C | 3000 to 10000 | – |
| Cc1ccn2cc(-c3cc4ccc(N5CCN(C)CC5)cc4oc3=O)nc2c1 [Compound 134, 3-(7-methylimidazo[1,2-a]pyridin-2-yl)-7-(4-methylpiperazin-1-yl)-2H-chromen-2-one] | 0.3 to 1 | *** (fold increase between >1.35 and ≤1.5) | 252 to 262 °C | 1000 to 3000 | – |
| Cc1cccc2nc(-c3cc4ccc(N5CCN(C)CC5)cc4oc3=O)cn12 [Compound 135, 3-(5-methylimidazo[1,2-a]pyridin-2-yl)-7-(4-methylpiperazin-1-yl)-2H-chromen-2-one] | 0.3 to 1 | ** (fold increase between >1.2 and ≤1.35) | 263 to 272 °C | – | – |
| Cc1cccn2cc(-c3cc4ccc(N5C[C@@H](C)N[C@@H](C)C5)cc4oc3=O)nc12 [Compound 136, 7-[(3R,5S)-3,5-dimethylpiperazin-1-yl]-3-(8-methylimidazo[1,2-a]pyridin-2-yl)-2H-chromen-2-one] | 1 to 3 | ** (fold increase between >1.2 and ≤1.35) | 243 to 246 °C | – | – |
| C[C@@H]1CN(c2ccc3cc(-c4cn5cccc(Cl)c5n4)c(=O)oc3c2)C[C@H](C)N1C [Compound 137, 3-(8-chloroimidazo[1,2-a]pyridin-2-yl)-7-[(3R,5S)-3,4,5-trimethylpiperazin-1-yl]-2H-chromen-2-one] | 1 to 3 | *** (fold increase between >1.35 and ≤1.5) | 244 to 247 °C | – | – |
| CN1CCN(c2ccc3cc(-c4cn5cc(F)ccc5n4)c(=O)oc3c2)CC1 [Compound 138, 3-(6-fluoroimidazo[1,2-a]pyridin-2-yl)-7-(4-methylpiperazin-1-yl)-2H-chromen-2-one] | 1 to 3 | ** (fold increase between >1.2 and ≤1.35) | 266 to 269 °C | – | – |
| C[C@@H]1CN(c2ccc3cc(-c4cn5ccccc5n4)c(=O)oc3c2)C[C@H](C)N1 [Compound 139, 7-[(3R,5S)-3,5-dimethylpiperazin-1-yl]-3-(imidazo[1,2-a]pyridin-2-yl)-2H-chromen-2-one] | 1 to 3 | *** (fold increase between >1.35 and ≤1.5) | 261 °C (dec.) | – | – |
| Cc1ccc2nc(-c3cc4ccc(N5CCCN(C)CC5)cc4oc3=O)cn2c1 [Compound 142, 7-(4-methyl-1,4-diazepan-1-yl)-3-(6-methylimidazo[1,2-a]pyridin-2-yl)-2H-chromen-2-one] | 1 to 3 | **** (fold increase between >1.5 and ≤1.65) | 175 to 180 °C | 300 to 1000 | – |
| CC(C)NC(C)c1ccc2cc(-c3nc4ccccc4s3)c(=O)oc2c1 (stereo not drawn) [Compound 144, 3-(1,3-benzothiazol-2-yl)-7-[1-(propan-2-ylamino)ethyl]-2H-chromen-2-one] | 1 to 3 | * (maximum fold increase of ≤1.2) | 135 to 137 °C | – | – |
| CN(C)CCN(C)c1ccc2cc(-c3nc4ccccc4s3)c(=O)oc2c1 [Compound 146, 3-(1,3-benzothiazol-2-yl)-7-{[2-(dimethylamino)ethyl](methyl)amino}-2H-chromen-2-one] | 0.3 to 1 | * (maximum fold increase of ≤1.2) | 155 to 157 °C | – | – |
| Cc1c(-c2nc3ccccc3s2)c(=O)oc2cc(N3CCNCC3)ccc12 [Compound 147, 3-(1,3-benzothiazol-2-yl)-4-methyl-7-(piperazin-1-yl)-2H-chromen-2-one] | 1 to 3 | * (maximum fold increase of ≤1.2) | 234 to 236 °C | – | – |
| O=c1oc2cc(N3CCNCC3)ccc2cc1-c1cn2cccc(F)c2n1 [Compound 149, 3-(8-fluoroimidazo[1,2-a]pyridin-2-yl)-7-(piperazin-1-yl)-2H-chromen-2-one] | 1 to 3 | *** (fold increase between >1.35 and ≤1.5) | 236 to 238 °C | – | – |
| CN1CCN(c2ccc3cc(-c4cn5cccc(F)c5n4)c(=O)oc3c2)CC1 [Compound 150, 3-(8-fluoroimidazo[1,2-a]pyridin-2-yl)-7-(4-methylpiperazin-1-yl)-2H-chromen-2-one] | 0.3 to 1 | *** (fold increase between >1.35 and ≤1.5) | 278 to 280 °C | 3000 to 10000 | – |
| CCN1CCN(c2ccc3cc(-c4cn5cc(C)sc5n4)c(=O)oc3c2)CC1 [Compound 151, 7-(4-ethylpiperazin-1-yl)-3-(2-methylimidazo[2,1-b][1,3]thiazol-6-yl)-2H-chromen-2-one] | 3 to 30 | * (maximum fold increase of ≤1.2) | 205 to 208 °C | – | – |
